Results taken from US20220213436A1, “BRAIN ORGANOID MACHINE INTERFACE” (The Regents of the University of California, priority 2019, published 2022).

These molecules were tested on cortical organoids (assay: Pharmacological manipulation of cortical organoid network activity recorded by multi-electrode array (MEA)). Conditions: not given.
Type: cell-based, human

| Structure (SMILES) | neuronal electrical activity |
| --- | --- |
| NC1=N[C@H](O)[C@H]2[C@H]3O[C@]4(O)O[C@@H]([C@@H](O)[C@@]2(N1)[C@@H]4O)[C@]3(O)CO [tetrodotoxin] | blocked |

Same assay, conditions: 8-month-old organoids; recording 15 min after addition; 20 μM AP5, 20 μM CNQX, 50 μM muscimol, 25 μM baclofen, 10 μM bicuculline

| Structure (SMILES) | number of bursts / burst activity | synchronous activity / synchrony indexes |
| --- | --- | --- |
| NC(CCCP(=O)(O)O)C(=O)O (stereo not drawn) [AP5] | significantly reducing | extinction |
| N#Cc1cc2[nH]c(=O)c(=O)[nH]c2cc1[N+](=O)[O-] [CNQX] | significantly reducing | extinction |
| NCC(CC(=O)O)c1ccc(Cl)cc1 (stereo not drawn) [baclofen] | significantly reducing | extinction |
| NCc1cc(=O)[nH]o1 [muscimol] | significantly reducing | extinction |
